Read-outs that look alike come from different tables or passages of the source.
Experiments:
Experiment in all cases: Efficacy screening assay
Format in all cases: cell-based
5637 (HTB-9) = test system: 5637 (HTB-9)
Method: (§1) labelled fluorogenic peptide substrates: fluorogenic peptide from p53 residues 379-382 (RHKK(Ac)AMC) for HDAC1, 2, 3, 6, 10, 11; fluorogenic HDAC Class IIa Substrate (Trifluoro acetyl Lysine, Ac-LGK(TFA)-AMC) for HDAC 4, 5, 7, 9; and fluorogenic peptide from p53 residues 379-382 (RHK(Ac)K(Ac)AMC) for HDAC8. 1 mg/mL BSA and DMSO was added to the assay buffer (50 mM Tris-HCl, pH 8.0; 137 mM NaCl; 2.7 mM KCl; 1 mM MgCl2) prior to use. In a two-step reaction, the substrate with the acetylated lysine side chain was incubated for with a sample containing HDAC activity to p roduce the deacetylated products: 1 h at 30°C for HDAC1, 2, 3 and 6; 30 min at RT for HDAC4, 5, 7 and 9; 2 h at 30°C for HDAC8, 10 and 11. In a second step, the deacetylated products were digested by the addition of developer for 1 h at 30°C to produce the fluorescent signal proportional to the amount of deacetylated substrates and the fluorescence was measured using an Envision plate reader at 355 nm (excitation) and 460 nm (emission). A kinetic measurement was performed for ~1 h with 5 min intervals and d ata from the final time point were analysed. IC50 values and curve fits were obtained using GraphPad Softwar e.
(§2) The experiment was performed by Oncolead GmbH & Co. KG (Karlsfeld , Germany), based on a standardized screening procedure . Cell lines were purchased directly from the ATCC, NCI and DSMZ cell line c ollections. Cells used for the study had undergone less than 20 passages. To ensure the absence of potential contamination and wrong assignment, all cell lines were tested using a whole genome assay (Agilent, USA). All cell lines were grown as recommended by the suppliers and with addition of 100 U/mL penicillin G and 100 µg/mL; streptomycin. Cell growth and treatments were performed in Nunclon D 96 -well plates (NUNC, Germany). The optimal seeding density for each cell line was determined to ensure exponential growth for the duration of the experiment. All cells growing without anti-cancer agents were sub-conﬂuent by the end of the treatment, as determined by visual inspection.
(§3) After an initial 24 h pre-growth period, the compounds were added. The vehicle concentration […]
(§4) was 0.1% DMSO. After incubation at 37°C for 72 h, the culture medium was aspirated, and the cells were precipitated by the addition of 10% trichloroacetic acid (Sigma-Aldrich, Missouri, US). After overnight incubation at 4°C, the plates were washed three times with deionized water. The precipitates were then stained with SRB (0.4% wt/v sulforhodamine B solution in 1% acetic acid, Sigma-Aldrich, Missouri, US). Afterwards, the plates were washed six times with 1% acetic acid to remove unbound stain. After drying the plates at room temperature, the bound SRB was solubilized with 10 mM Tris base and the optical density was measured at 520 nm using a Victor2 plate reader (Perkin Elmer, Germany). Blank OD values were subtracted from mean OD values for each concentration. The nonlinear curve ﬁtting and EC50 calculations were per formed using XLﬁt and algorithm “205” (ID Business […]
(§5) For cell-based and other in vitro assays, data are presented as data mean ± SD of at least […]
(§6) For the orthotopic mouse model, data are presented as mean + SEM. For statistical analysis, one-way ANOVA and multiple comparison (Dunnett) was performed for compound treatments compared to vehicle control. The adjusted p-values with 95% confidence interval were reported as significant. For comparison of EC50 values in Figure 1F, one-way ANOVA with multiple comparison testing (Tukey) was performed. Multiplicity adjusted p -values for the EC50 with sorafenib versus resminostat for each cell line and comparison between cell lines for sorafenib are presented (95% confidence interval for significance testing). For comparison of EC50 data in Figure 2B, one-way ANOVA with multiple comparison testing (Tukey) was performed. Multiplicity adjusted p-values with 95% confidence interval was applied. For the […]

COLO205 = conditions: COLO205, colon
Method: as §1, §2, §3, §4, §5, §6

DLD1 = conditions: Homo sapiens, DLD-1, DLD1, colon, 72 h
Method: as §1, §2, §3, §4, §5, §6

DU145 = conditions: DU145, prostate
Method: as §1, §2, §3, §4, §5, §6

HEK293 = conditions: HEK293, kidney
Method: as §1, §2, §3, §4, §5, §6

HepG2 = conditions: Homo sapiens, HepG2, 72 h, HEPG2, liver
Method: as §1, §2, §3, §4, §5, §6

SF295 = conditions: SF295, brain
Method: as §1, §2, §3, §4, §5, §6

SKMEL28 = conditions: Homo sapiens, SK-MEL-28, SKMEL28, skin, 72 h
Method: as §1, §2, §3, §4, §5, §6

SKOV3 = conditions: SKOV3, ovary
Method: as §1, §2, §3, §4, §5, §6

SW620 = conditions: SW620, colon
Method: as §1, §2, §3, §4, §5, §6

TE671 = conditions: TE671, muscle
Method: as §1, §2, §3, §4, §5, §6

U87MG = conditions: 72 h, brain
Method: as §1, §2, §3, §4, §5, §6

[1] = log of EC50, negative, read-out: log(EC50) (converted)

Molecule CN(C)Cc1ccc(S(=O)(=O)n2ccc(/C=C/C(=O)NO)c2)cc1 [resminostat, Resminostat] has an EC50 (5637 (HTB-9); 72 h, bladder, log of EC50, negative, read-out: log(EC50) (converted)) of 1.12 µM, an EC50 (5637 (HTB-9); 72 h, bladder, read-out: EC50) of 1.13 µM and an EC50 (5637 (HTB-9); bladder, 72 h, read-out: EC50) of 1.13 µM. For the same molecule, the EC50 (COLO205; 72 h, read-out: EC50) was 2.54 µM, the EC50 (COLO205; Homo sapiens, COLO 205, 72 h, log of EC50, negative, read-out: log(EC50) (converted)) was 2.57 µM and the EC50 (COLO205; Homo sapiens, COLO 205, 72 h, read-out: EC50) was 2.54 µM. The EC50 (DLD1; [1]) was 1.95 µM, the EC50 (DLD1; read-out: EC50) was 1.95 µM and the EC50 (DU145; 72 h, read-out: EC50) was 1.38 µM. It also gave an EC50 (DU145; Homo sapiens, DU-145, 72 h, log of EC50, negative, read-out: log(EC50) (converted)) of 1.38 µM, an EC50 (DU145; Homo sapiens, DU-145, 72 h, read-out: EC50) of 1.38 µM and an EC50 (HEK293; 72 h, read-out: EC50) of 4.76 µM. For the same molecule, the EC50 (HEK293; Homo sapiens, HEK293, 72 h, log of EC50, negative, read-out: log(EC50) (converted)) was 4.79 µM, the EC50 (HEK293; Homo sapiens, HEK293, 72 h, read-out: EC50) was 4.76 µM and the EC50 (HepG2; [1]) was 0.501 µM. The EC50 (HepG2; read-out: EC50) was 0.504 µM, the EC50 (SF295; Homo sapiens, SF-295, 72 h, log of EC50, negative, read-out: log(EC50) (converted)) was 2.51 µM and the EC50 (SF295; Homo sapiens, SF-295, 72 h, read-out: EC50) was 2.53 µM. The EC50 (SF295; 72 h, read-out: EC50) was 2.53 µM, the EC50 (SKMEL28; [1]) was 3.31 µM and the EC50 (SKMEL28; read-out: EC50) was 3.34 µM. For the same molecule, the EC50 (SKOV3; Homo sapiens, SK-OV-3, 72 h, log of EC50, negative, read-out: log(EC50) (converted)) was 3.72 µM, the EC50 (SKOV3; Homo sapiens, SK-OV-3, 72 h, read-out: EC50) was 3.69 µM and the EC50 (SKOV3; 72 h, read-out: EC50) was 3.69 µM. For the same molecule, the EC50 (SW620; Homo sapiens, SW-620, 72 h, log of EC50, negative, read-out: log(EC50) (converted)) was 1.29 µM, the EC50 (SW620; Homo sapiens, SW-620, 72 h, read-out: EC50) was 1.27 µM and the EC50 (SW620; 72 h, read-out: EC50) was 1.27 µM. The EC50 (TE671; Homo sapiens, TE-671, 72 h, log of EC50, negative, read-out: log(EC50) (converted)) was 1.35 µM, the EC50 (TE671; Homo sapiens, TE-671, 72 h, read-out: EC50) was 1.34 µM and the EC50 (TE671; 72 h, read-out: EC50) was 1.34 µM. It also gave an EC50 (U87MG; Homo sapiens, U-87 MG, log of EC50, negative, read-out: log(EC50) (converted)) of 5.5 µM, an EC50 (U87MG; Homo sapiens, U-87 MG, read-out: EC50) of 5.55 µM and an EC50 (U87MG; read-out: EC50) of 5.55 µM.
